We go through three compounds from publication PMC8460535, “Novel serotonin 5-HT2A receptor antagonists derived from 4-phenylcyclohexane-5-spiro-and 5-methyl-5-phenyl-hydantoin, for use as potential antiplatelet agents” (Pharmacological Reports, 2021).

Where two headings read alike, the source gives them in different places. Marks after values point to notes of the source that are not given here.

The subject of assay [1] is whole rat blood aggregation induced by 5-HT and ADP. The assay can be described thus: In vitro whole rat blood aggregation induced by 5-HT and sub-threshold ADP. The assay is classed as cell-based. To be noted: 5-HT 6 μM and ADP 1.6 μM, na = not active, read-out: c (5-HT + ADP) IC50. As to the method:
(§1) In vitro aggregation assays were performed using freshly drawn whole rat blood with a Multiplate platelet function analyzer (Roche Diagnostic), the five-channel aggregometer based on measurements of electric impedance. Blood was collected from carotid arteries with a hirudin blood tube (Roche Diagnostic). 300 μl of hirudin anticoagulated blood was mixed with 300 μl prewarmed isotonic saline solution containing studied compound or vehicle (deionized water or DMSO 0.1%) and preincubated for 3 min at 37 °C with continuous stirring. Aggregation was induced by adding collagen (Hyphen-Biomed, France) (final concentration 1.6 µg/ml), 5-HT (30 µM) and sub-threshold concentration of collagen (0.8 µg/ml), 5-HT (6 µM) and sub-threshold concentration of ADP (ADP test, Roche Diagnostic), (1.6 µM). The aggregation process was recorded for 6 min. Ketanserin (ketanserin ( +) tartrate salt, Sigma-Aldrich, Germany), sarpogrelate (sarpogrelate hydrochloride, Sigma-Aldrich, Germany), and aspirin (Tocris, UK) were used as reference compounds. The Multiplate software analyzed the area under the curve (AUC) of the clotting process of each measurement and calculated the mean values. Each concentration of studied compounds was tested at least three times. The exact sample size (n value) is presented on Figs. 2–4. Concentration-inhibition curves were constructed and analyzed by non-linear curve fitting using GraphPad Prism 6.0 (GraphPad Software Inc., San Diego, CA, USA).

Assay [2] deals with whole rat blood aggregation induced by 5-HT and collagen. The assay can be described thus: In vitro whole rat blood aggregation induced by 5-HT and sub-threshold collagen. The format is cell-based. To be noted: 5-HT 30 μM and collagen 0.8 μg/ml, read-out: b (5-HT + collagen) IC50. On the procedure:
as §1

The next assay addresses dopamine D2 receptor. More on the design: method as in Czopek et al., Acta Pol. Pharm. 73 (2016) 1545–1554. Particulars: ref Czopek et al., Acta Pol. Pharm. 73 (2016) 1545–1554; read-out: Ki ± SEM [nM] D2; cited from earlier work.
For assay [3], the target named is T1, 5-HT2A receptors in rat aorta (Rattus norvegicus, UniProt P14842).
T1 construct: Isolated rat aorta was used to determine the antagonistic activity of studied compounds for 5HT2A-receptors; from tissue; host or cells: aortic rings of male Wistar rats, denuded of the endothelium
To be noted: already published; cited from earlier work.

The target in assay [4] is serotonin 5-HT1A receptor. On the set-up: method as in Czopek et al., Acta Pol. Pharm. 73 (2016) 1545–1554. Particulars: ref Czopek et al., Acta Pol. Pharm. 73 (2016) 1545–1554; read-out: Ki ± SEM [nM] 5-HT1A; cited from earlier work.
The target in a further assay is 5-HT2A receptor. To be noted: cited from earlier work.
The subject of assay [5] is whole rat blood aggregation induced by collagen. The assay can be described thus: In vitro whole rat blood aggregation induced by collagen (Multiplate). The assay is classed as cell-based. Particulars: collagen 1.6 μg/ml, na = not active. As to the method:
as §1

The target of assay [6] is T2, human 5-HT2A receptor (Homo sapiens, UniProt P28223).
T2 construct: purchased PerkinElmer; host or cells: CHO-K1 cells, stably transfected
More on the design: method as in PMID 29111111. To be noted: cells expressing human 5-HT2A receptors; already published; cited from earlier work.

Assay [7] has as its system whole rat blood aggregation induced by 5-HT and ADP. More on the design: method as in PMID 29111111. To be noted: 5-HT 6 μM and ADP 1.6 μM, already published, read-out: c (5-HT + ADP) IC50; cited from earlier work.
For assay [8], the target named is T2, human 5-HT2A receptor. The assay can be described thus: 5-HT2A receptor radioligand binding assay ([3H]-ketanserin, CHO-K1 membranes). To be noted: radioligand binding, compound 13 vs compound 3. On the procedure:
Stock solutions of tested compounds (10 mM) were prepared in DMSO. […] Each compound was tested in eight concentrations from 10^–5 to 10^–12 M (final concentration).
Radioligand binding was performed using membranes from CHO-K1 cells stably transfected with the human 5-HT2A receptor (PerkinElmer). All assays were carried out in duplicates. Data were fitted to a one-site curve-fitting equation with Prism 6 (GraphPad Software) and Ki values were estimated from the Cheng − Prusoff equation. The full description of this assay is in Supplementary material.
Mianserin (10 μM) was used to define nonspecific binding. […] The reaction was terminated by rapid filtration through GF/B filter mate presoaked with 0.5% polyethyleneimine for 30 minutes. Ten rapid washes with 200 µl 50 mM Tris buffer (4°C, pH 7.4) were performed using automated harvester system Harvester-96 MACH III FM (Tomtec). […] Radioactivity was counted in MicroBeta2 scintillation counter (PerkinElmer).

T1 sequence (P14842 whole entry): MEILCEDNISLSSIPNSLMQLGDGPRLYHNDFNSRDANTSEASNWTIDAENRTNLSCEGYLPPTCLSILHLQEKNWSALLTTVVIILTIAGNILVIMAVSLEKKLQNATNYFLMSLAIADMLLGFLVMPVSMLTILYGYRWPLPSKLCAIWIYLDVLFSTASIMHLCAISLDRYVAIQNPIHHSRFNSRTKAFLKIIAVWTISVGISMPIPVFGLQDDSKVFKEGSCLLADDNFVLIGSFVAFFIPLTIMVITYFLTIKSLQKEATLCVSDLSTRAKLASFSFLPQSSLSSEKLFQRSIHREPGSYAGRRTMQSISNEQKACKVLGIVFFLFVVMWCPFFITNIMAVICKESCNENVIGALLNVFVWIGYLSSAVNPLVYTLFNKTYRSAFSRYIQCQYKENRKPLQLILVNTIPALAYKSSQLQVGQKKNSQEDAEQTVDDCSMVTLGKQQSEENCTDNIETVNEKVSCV
T2 sequence (P28223 whole entry): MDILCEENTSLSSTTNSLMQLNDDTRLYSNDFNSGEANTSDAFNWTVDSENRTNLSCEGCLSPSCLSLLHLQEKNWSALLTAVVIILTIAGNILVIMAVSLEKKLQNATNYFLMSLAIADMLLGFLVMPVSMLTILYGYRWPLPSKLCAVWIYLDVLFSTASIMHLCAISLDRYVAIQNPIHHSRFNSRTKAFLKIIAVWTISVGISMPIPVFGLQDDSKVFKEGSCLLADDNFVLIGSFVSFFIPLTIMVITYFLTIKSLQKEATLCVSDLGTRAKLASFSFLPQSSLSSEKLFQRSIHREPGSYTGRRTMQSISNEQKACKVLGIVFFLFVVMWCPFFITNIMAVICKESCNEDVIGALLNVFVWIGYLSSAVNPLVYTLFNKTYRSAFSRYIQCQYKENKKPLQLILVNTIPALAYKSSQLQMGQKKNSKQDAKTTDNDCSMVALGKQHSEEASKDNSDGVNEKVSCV

The term IC50 denotes the concentration that gives 50% inhibition. What is called Ki is a measure of affinity in units of concentration, obtained from inhibition or displacement. As for `O=C1NC2(CCC(c3ccccc3)CC2)C(=O)N1CCCN1CCN(c2cccc(Cl)c2)CC1` (stereo not shown) [Compound 14, 3-(3-(4-(3-chlorophenyl)piperazin-1-yl)propyl)-8-phenyl-1,3-diazaspiro[4.5]decane-2,4-dione], the IC50 in assay [1] was 93.8 ± 9.4 µM; in [2], 75.8 ± 16.6 µM. The Ki is > 10000 nM at dopamine D2 receptor; 5210 ± 268 nM in assay [4]; 56 ± 7 nM at 5-HT2A receptor (Table S1, ref Czopek et al., Acta Pol. Pharm. 73 (2016) 1545–1554, read-out: Ki ± SEM [nM] 5-HT2A); 24 ± 2.5 nM on 5-HT2A receptor (serotonin 5-HT2A receptors, already published and re-printed for comparison, read-out: Ki [nM] ± SEM). The “pKB ± SEM a” value in assay [3] is reported as 7.110 ± 0.05^a.
As for `COc1cccc(CCc2ccccc2OCC(CN(C)C)OC(=O)CCC(=O)O)c1` (stereo not shown) [Sarpogrelate], the 50% inhibitory concentration (IC50) in [5] is 66.8 ± 12.9 µM; in assay [7] it was 22.7 ± 2.1 µM. In addition, the “pKB ± SEM a” value in assay [3] was 8.220 ± 0.08^b. Besides, the “pKB ± SEM b” value on human 5-HT2A receptor [6] is listed as 7.296 ± 0.04^b.
As to `O=C1NC2(CCC(c3ccccc3)CC2)C(=O)N1CCCN1CCN(c2ccccc2)CC1` (stereo not shown) [Compound 13, 8-phenyl-3-(3-(4-phenylpiperazin-1-yl)propyl)-1,3-diazaspiro[4.5]decane-2,4-dione], the IC50 came to 9.9 ± 2.5 µM in [1], 27.3 ± 3.8 µM in [5] and 53.3 ± 4.6 µM in assay [2]. Besides, the Ki at dopamine D2 receptor is > 10000 nM; in assay [4], 1670 ± 75 nM; on 5-HT2A receptor (5-HT2A receptors, previous studies, read-out: Ki (5-HT2A) of earlier hydantoin leads) it was 50 nM. The “pKB ± SEM a” value in assay [3] was 7.665 ± 0.03^a. In addition, at human 5-HT2A receptor [8], the “fold higher affinity for 5-HT2A compared to compound 3” value is reported as “over 25 fold”.
